Experimental findings from patent publication US5571816A, “Pyrimidines” (Hoechst Aktiengesellschaft, priority 1992, dated 1996) are described below.

Where a name gives a salt, the structure may show the parent alone. Read-outs that look alike come from different tables or passages of the source.

Series [1] concerns LDL receptor mRNA. In words: Stimulation of LDL receptor mRNA expression in rat livers (Northern blot). The settings on record: rat liver, 30 mg/kg, 6 hours after administration; untreated control = 100%. The class given is in vivo. How it is done: 1b. The LDL receptor mRNA levels are also raised in rat livers by compounds of the formula I within a few hours (Table II).
(§1) The mRNA was prepared by the method described by Chomczynski, P. and Sacchi, N., in Anal. Biochem. 162, 156-159 (1987). In the case of organs (such as, for example, liver), the deep-frozen tissue was previously homogenized on dry ice in a mortar, and the mRNA was further concentrated by means of oligo dT by standard methods (cf. Sambrook, J., Fritsch, E. F. and Maniatis, T., Molecular Cloning, second edition, Cold Spring Harbor (1989); this collection of methods also includes descriptions of all the other relevant standard processes of molecular biology used here). 5 to […] of the dissolved mRNA obtained in this way were denatured by standard processes and fractionated on 1% horizontal agarose gels. The mRNA was transferred by capillary blotting to Hybond N membranes (Amersham). Used as specific hybridization probe was a partial LDL receptor cDNA clone and as internal standard was a plasmid which contained a β-actin gene. Both plasmids were labeled using a random primer kit from Amersham to a specific activity of 5×10^9 cpm/μg. Prehybridization, hybridization and washing of the filters took place by standard processes. The filters were subsequently exposed on Cronex 4 films (Dupont) in the presence of an intensifying screen at -70° C. overnight or for up to 14 days, and the hybridization signals were quantified from the intensity of blackening of the film using a commercially available laser densitometer. Subsequently, the quotient of the intensity of the LDL receptor band and of the actin band was determined as internal standard to correct for variations in yield.
Liver tissue was removed and shock-frozen in liquid nitrogen.
Subsequently, the mRNA was isolated as described and, by means of the Northern blot technique, the relative LDL receptor mRNA levels were determined. The mRNA level of untreated control animals was set equal to 100%, and the stimulation of the LDL receptor mRNA was calculated as a percentage of the […]

The next series has as its system serum lipoproteins. In words: Effect on serum lipoproteins of normolipemic male rats in a subchronic experiment. The class given is in vivo. Particulars: Rattus norvegicus, po, by stomach tube, 7 administrations; for change in vivo at 1 mg/kg: 1 mg/kg/day; for change in vivo at 3 mg/kg: 3 mg/kg/day; for change in vivo at 10 mg/kg: 10 mg/kg/day; for change in vivo at 30 mg/kg: 30 mg/kg/day. In short, it runs like this:
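Male HOE: WISKf rats (>180 g, 10/group) dosed orally by stomach tube once daily for 7 days in 1% aqueous Tylose; fasted 24 h and bled 24 h after last dose. Pooled serum ultracentrifuged into VLDL (d<1.006) and LDL (d 1.006–1.04); cholesterol and triglycerides measured enzymatically, protein by Lowry.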

Series [2] has as its system LDL receptor mRNA. Nature of the series: Stimulation of LDL receptor mRNA expression in HepG2 cells (Northern blot). The class given is cell-based. The settings on record: Homo sapiens; HepG2, 2 × 10^-6 M, 16 h; control = 100%; ratio to β-actin mRNA. Here is the method:
1a. In the human hepatocytoma cell line HepG2, which is recognized everywhere as model, the LDL receptor mRNA levels are increased by the compounds of the formula I (Table I).
as §1
The HepG2 cells were incubated in RPMI 1640 standard medium with fetal calf serum (final concentration 10%). Serum-free RPMI medium was used as induction control. Subsequently, the complete mRNA was prepared and, by means of the Northern blot technique, the relevant LDL receptor mRNA and β-actin mRNA levels were determined. The quotient of the LDL receptor mRNA signal and of the β-actin mRNA signal of the control (without added substance) was set equal to 100%, and the stimulation above this of the LDL receptor mRNA levels achieved under the influence of the compounds was expressed as percentage of the control.

A short description of series [3]: Solubility in water of salts (and free bases). The class given is physicochemical. Particulars: Table 2, salts of compounds I, temp. by No. [°C]: 1 25.5, 2 23.0, 3 22.4, 4 22.4, 5 22.0, 6 25.0, 7 25.5, 8 25.5, 9 25.5, 10 23.5, 11 23.5, 12 25.0, 13 24.0, 14 23.0, 15 22.0, 16 24.5, 17 22.5, 18 22.0; for solubility: water, read-out: Solubility in water, Concentration in % by wt.

Where [4] appears, read: read-out: Serum LDL cholesterol, % change from control at end of treatment.
[5] abbreviates: read-out: Serum LDL protein, % change from control at end of treatment.
[6] abbreviates: read-out: Serum VLDL cholesterol, % change from control at end of treatment.
The mark [7] stands for this setting: read-out: Serum VLDL protein, % change from control at end of treatment.
Setting [8] is: read-out: Serum VLDL triglycerides, % change from control at end of treatment.

`CCN(C(=O)c1cnc(N2CC(C)(C)NC2=O)nc1N)c1cccc(C(F)(F)F)c1` [Example 2, 4-amino-2-(4,4-dimethyl-2-oxo-1-imidazolidinyl)pyrimidine-5-carboxylic acid N-ethyl-N-(3-trifluoromethylphenyl)amide hydrochloride]: in the series with LDL receptor mRNA [1], the “LDL receptor mRNA” value is on record as 300%. Further, the results for the change in vivo at 1 mg/kg with serum lipoproteins (setting [4]), with serum lipoproteins (setting [5]) and in the series on serum lipoproteins (setting [6]) were -28%, -44% and -22%, respectively. For the same compound, the change in vivo at 3 mg/kg with serum lipoproteins (setting [4]) is 40%; with serum lipoproteins (setting [5]) it was -28%; with serum lipoproteins (setting [6]), -30%; in the series on serum lipoproteins (setting [7]), -7%; in the series on serum lipoproteins (setting [8]) it was 40%. The change in vivo at 10 mg/kg was -32% in the series with serum lipoproteins (setting [4]); -28% in the series on serum lipoproteins (setting [5]); -41% in the series on serum lipoproteins (setting [6]); -28% in the series on serum lipoproteins (setting [7]); -26% in the series with serum lipoproteins (setting [8]). Moreover, the change in vivo at 30 mg/kg with serum lipoproteins (setting [4]) is -75%; in the series with serum lipoproteins (setting [5]), -73%; in the series with serum lipoproteins (setting [6]) it was -96%; in the series on serum lipoproteins (setting [7]) it was 40%; in the series with serum lipoproteins (setting [8]), -81%. Besides, in the series with LDL receptor mRNA [2], the activity at 2 µM was determined as 175%.

Turning to `CC(C)N(C(=O)c1cnc(N2CC(C)(C)NC2=O)nc1N)c1cccc(C(F)(F)F)c1` [Example 4, 4-amino-2-(4,4-dimethyl-2-oxo-1-imidazolidinyl)pyrimidine-5-carboxylic acid N-isopropyl-N-(3-trifluoromethylphenyl)amide hydrochloride], the “LDL receptor mRNA” value with LDL receptor mRNA [1] came out at 221%. Also, the change in vivo at 10 mg/kg with serum lipoproteins (setting [4]) was -39%; in the series with serum lipoproteins (setting [5]) it was -33%; in the series on serum lipoproteins (setting [6]), 2%; in the series with serum lipoproteins (setting [7]), -18%. Moreover, the change in vivo at 30 mg/kg was -68% in the series on serum lipoproteins (setting [4]); -53% with serum lipoproteins (setting [5]); -70% with serum lipoproteins (setting [6]); -13% in the series on serum lipoproteins (setting [7]); -29% with serum lipoproteins (setting [8]). Also, in the series with LDL receptor mRNA [2], the activity at 2 µM is 205%.

Consider `CCCN(C(=O)c1cnc(N2CC(C)(C)NC2=O)nc1N)c1cccc(C(F)(F)F)c1` [Example 33], for which the “1 part by mass dissolves in ... parts by H2O” value in series [3] stood at 22.8 parts by H2 O. Also, in series [3], the solubility was determined as 42 mg/mL. Moreover, the “LDL receptor mRNA” value in the series with LDL receptor mRNA [1] is reported as 350%. The change in vivo at 10 mg/kg was -47% in the series with serum lipoproteins (setting [4]); -33% in the series on serum lipoproteins (setting [5]); 48% in the series on serum lipoproteins (setting [6]); -29% in the series on serum lipoproteins (setting [7]); -73% in the series with serum lipoproteins (setting [8]). For the same compound, the change in vivo at 30 mg/kg in the series on serum lipoproteins (setting [4]) is -67%; with serum lipoproteins (setting [5]), 44%; with serum lipoproteins (setting [6]), -95%; in the series with serum lipoproteins (setting [7]) it was -33%; in the series on serum lipoproteins (setting [8]) it was -100%. In addition, the activity at 2 µM in the series with LDL receptor mRNA [2] stood at 205%.

For `C=CCN(C(=O)c1cnc(N2CC(C)(C)NC2=O)nc1N)c1cccc(C(F)(F)F)c1` [Example 40], the “1 part by mass dissolves in ... parts by H2O” value in series [3] amounted to 12.1 parts by H2 O. For the same compound, the solubility in series [3] is 76.6 mg/mL. In the series with LDL receptor mRNA [1], the “LDL receptor mRNA” value was 340%. Besides, the change in vivo at 3 mg/kg in the series with serum lipoproteins (setting [4]) was -22%; in the series on serum lipoproteins (setting [5]), -18%; in the series on serum lipoproteins (setting [6]) it was -19%; with serum lipoproteins (setting [7]) it was -11%. Moreover, the change in vivo at 10 mg/kg in the series with serum lipoproteins (setting [4]) was -53%; in the series on serum lipoproteins (setting [5]), -38%; in the series with serum lipoproteins (setting [6]), -40%; with serum lipoproteins (setting [7]), -41%; in the series on serum lipoproteins (setting [8]) it was -2%. Moreover, the change in vivo at 30 mg/kg in the series with serum lipoproteins (setting [4]) is -58%; in the series on serum lipoproteins (setting [5]), -52%; in the series on serum lipoproteins (setting [6]) it was -57%; in the series with serum lipoproteins (setting [7]), -52%; with serum lipoproteins (setting [8]), -41%. Moreover, the activity at 2 µM in the series with LDL receptor mRNA [2] is 180%.

In the case of `CC1(C)CN(c2ncc(C(=O)N(c3cccc(C(F)(F)F)c3)C3CCCC3)c(N)n2)C(=O)N1` [Example 42], the “LDL receptor mRNA” value in the series with LDL receptor mRNA [1] is given as 312%. Further, the change in vivo at 3 mg/kg is -34% in the series on serum lipoproteins (setting [4]); -22% in the series on serum lipoproteins (setting [5]); -23% in the series with serum lipoproteins (setting [6]); -11% in the series with serum lipoproteins (setting [7]); -29% in the series on serum lipoproteins (setting [8]). Also, the change in vivo at 10 mg/kg with serum lipoproteins (setting [4]) was -29%; in the series with serum lipoproteins (setting [5]), -9%; in the series on serum lipoproteins (setting [6]), -23%; in the series on serum lipoproteins (setting [7]), -10%; in the series on serum lipoproteins (setting [8]) it was -29%. Moreover, the change in vivo at 30 mg/kg in the series with serum lipoproteins (setting [4]) is -48%; in the series on serum lipoproteins (setting [5]), -29%; with serum lipoproteins (setting [6]) it was -70%; in the series on serum lipoproteins (setting [7]) it was -40%; in the series on serum lipoproteins (setting [8]), -61%. Further, the activity at 2 µM in the series on LDL receptor mRNA [2] worked out at 180%.
